From patent publication US20230031406A1, “COMPOUNDS AND COMPOSITIONS FOR TREATING CONDITIONS ASSOCIATED WITH NLRP ACTIVITY” (Novartis AG, priority 2018, published 2023)

tested on: PMA-differentiated THP-1 cells; test: IL-1β production in PMA-differentiated THP-1 cells stimulated with gramicidin (hTHP-1 assay containing 2% fetal bovine serum; Procedures 1 and 2); assay type: cell-based, human; conditions: Homo sapiens, THP-1, Table B2; 2% fetal bovine serum; class symbols; read-out: hTHP-1 IC50
Outline: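 IL-1β release from PMA-differentiated THP-1 macrophage-like cells was triggered by 5 μM gramicidin for 2 h after 1 h compound exposure, then measured by HTRF.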

| Structure (SMILES) | IC50 [nM] |
| --- | --- |
| CC(C)(O)c1cc(F)c([S@](N)(=O)=NC(=O)Nc2cc(CC(F)(F)F)nc3c2CCC3)s1 [Compound 602b] | 1000 to 5000 |
| CCn1ccc(S(N)(=O)=NC(=O)Nc2c3c(nc4c2CCC4(C)C)CCC3)n1 (stereo not shown) [Compound 603, N′-((3,3-dimethyl-1,2,3,5,6,7-hexahydrodicyclopenta[b,e]pyridin-8-yl)carbamoyl)-1-ethyl-1H-pyrazole-3-sulfonimidamide] | 40 to 200 |
| CCn1ccc(S(N)(=O)=NC(=O)Nc2c3c(nc4c2CCC42CC2)CCC3)n1 (stereo not shown) [Compound 604, 1-Ethyl-N′-((1′,5′,6′,7′-tetrahydro-2′H-spiro[cyclopropane-1,3′-dicyclopenta[b,e]pyridin]-8′-yl)carbamoyl)-1H-pyrazole-3-sulfonimidamide] | 200 to 1000 |
| CCn1ccc([S@@](N)(=O)=NC(=O)Nc2c3c(nc4c2CCC42CC2)CCC3)n1 [Compound 604a] | 5000 to 30000 |
| CCn1ccc([S@](N)(=O)=NC(=O)Nc2c3c(nc4c2CCC42CC2)CCC3)n1 [Compound 604b] | 200 to 1000 |
| CC(C)(O)c1csc(S(N)(=O)=NC(=O)Nc2cc(CC(F)(F)F)nc3c2CCC3)c1 (stereo not shown) [Compound 607, 4-(2-Hydroxypropan-2-yl)-N′-((2-(2,2,2-trifluoroethyl)-6,7-dihydro-5H-cyclopenta[b]pyridin-4-yl)carbamoyl)thiophene-2-sulfonimidamide] | 1000 to 5000 |
| Cc1c(C(F)(F)F)nc2c(c1NC(=O)N=[S@](N)(=O)c1cnc(C(C)(C)O)s1)CC[C@@H]2C [Compound 608a] | 200 to 1000 |
| Cc1c(C(F)(F)F)nc2c(c1NC(=O)N=[S@](N)(=O)c1cnc(C(C)(C)O)s1)CC[C@H]2C [Compound 608b] | 5000 to 30000 |
| Cc1c(C(F)(F)F)nc2c(c1NC(=O)N=[S@@](N)(=O)c1cnc(C(C)(C)O)s1)CCC2C (stereo partly shown) [Compound 608d] | 1000 to 5000 |
| CCc1c(C(F)(F)F)nc2c(c1NC(=O)N=S(N)(=O)c1cc(C(C)(C)O)cs1)CCC2 (stereo not shown) [Compound 609, N′-((3-ethyl-2-(trifluoromethyl)-6,7-dihydro-5H-cyclopenta[b]pyridin-4-yl)carbamoyl)-4-(2-hydroxypropan-2-yl)thiophene-2-sulfonimidamide] | 1000 to 5000 |
| CCc1c(C(F)(F)F)nc2c(c1NC(=O)N=S(N)(=O)c1cnc(C(C)(C)O)s1)CCC2 (stereo not shown) [Compound 610, N′-((3-ethyl-2-(trifluoromethyl)-6,7-dihydro-5H-cyclopenta[b]pyridin-4-yl)carbamoyl)-2-(2-hydroxypropan-2-yl)thiazole-5-sulfonimidamide] | 5000 to 30000 |
| CCc1c(C(F)(F)F)nc2c(c1NC(=O)N=S(N)(=O)c1sc(C(C)(C)O)cc1F)CCC2 (stereo not shown) [Compound 611, N′-((3-ethyl-2-(trifluoromethyl)-6,7-dihydro-5H-cyclopenta[b]pyridin-4-yl)carbamoyl)-3-fluoro-5-(2-hydroxypropan-2-yl)thiophene-2-sulfonimidamide] | 200 to 1000 |
| Cc1c(C2CC2)nc(C2CC2)c(C)c1NC(=O)N=S(N)(=O)c1cc(C(C)(C)O)cs1 (stereo not shown) [Compound 612, N′-((2,6-dicyclopropyl-3,5-dimethylpyridin-4-yl)carbamoyl)-4-(2-hydroxypropan-2-yl)thiophene-2-sulfonimidamide] | 1000 to 5000 |
| CC(C)(O)c1sc(S(N)(=O)=NC(=O)Nc2c3c(nc4c2CCC4(C)C)CCC3)cc1F (stereo not shown) [Compound 613, N′-((3,3-dimethyl-1,2,3,5,6,7-hexahydrodicyclopenta[b,e]pyridin-8-yl)carbamoyl)-4-fluoro-5-(2-hydroxypropan-2-yl)thiophene-2-sulfonimidamide] | 200 to 1000 |
| CC(C)(O)c1sc(S(N)(=O)=NC(=O)Nc2c3c(nc4c2CCC42CC2)CCC3)cc1F (stereo not shown) [Compound 614, 4-Fluoro-5-(2-hydroxypropan-2-yl)-N′-((1′,5′,6′,7′-tetrahydro-2′H-spiro[cyclopropane-1,3′-dicyclopenta[b,e]pyridin]-8′-yl)carbamoyl)thiophene-2-sulfonimidamide] | 200 to 1000 |
| CC(C)n1nc(S(N)(=O)=NC(=O)Nc2c3c(nc4c2CCC4(C)C)CCC3)cc1C(C)(C)O (stereo not shown) [Compound 615, N′-((3,3-dimethyl-1,2,3,5,6,7-hexahydrodicyclopenta[b,e]pyridin-8-yl)carbamoyl)-5-(2-hydroxypropan-2-yl)-1-isopropyl-1H-pyrazole-3-sulfonimidamide] | 1000 to 5000 |
| C[C@@H]1CCc2c1nc1c(c2NC(=O)N=S(N)(=O)c2cc(F)c(C(C)(C)O)s2)CCC1 (stereo partly drawn) [Compound 616, 4-Fluoro-5-(2-hydroxypropan-2-yl)-N′-(((R)-3-methyl-1,2,3,5,6,7-hexahydrodicyclopenta[b,e]pyridin-8-yl)carbamoyl)thiophene-2-sulfonimidamide] | 40 to 200 |
| Cc1c(C(F)(F)F)nc2c(c1NC(=O)N=S(N)(=O)c1cnn(C(F)F)c1)CCC2 (stereo not shown) [Compound 617, 1-(Difluoromethyl)-N′-((3-methyl-2-(trifluoromethyl)-6,7-dihydro-5H-cyclopenta[b]pyridin-4-yl)carbamoyl)-1H-pyrazole-4-sulfonimidamide] | 5000 to 30000 |
| Cc1nc2c(c(NC(=O)N=S(N)(=O)c3ncc(C(C)(C)O)s3)c1C1CC1)CCC2 (stereo not shown) [Compound 618, N′-((3-cyclopropyl-2-methyl-6,7-dihydro-5H-cyclopenta[b]pyridin-4-yl)carbamoyl)-5-(2-hydroxypropan-2-yl)thiazole-2-sulfonimidamide] | 1000 to 5000 |
| Cc1c(CO)nc2c(c1NC(=O)N=S(N)(=O)c1cnc(C(C)(C)O)s1)CCC2 (stereo not shown) [Compound 619, N-((2-(hydroxymethyl)-3-methyl-6,7-dihydro-5H-cyclopenta[b]pyridin-4-yl)carbamoyl)-2-(2-hydroxypropan-2-yl)thiazole-5-sulfonimidamide] | 5000 to 30000 |
| CC(C)(O)c1ccnc(S(N)(=O)=NC(=O)Nc2c3c(nc4c2CCC4(C)C)CCC3)c1 (stereo not shown) [Compound 620, N′-((3,3-dimethyl-1,2,3,5,6,7-hexahydrodicyclopenta[b,e]pyridin-8-yl)carbamoyl)-4-(2-hydroxypropan-2-yl)pyridine-2-sulfonimidamide] | 5000 to 30000 |
| Cc1c(C(F)(F)F)nc2c(c1NC(=O)N=S(N)(=O)c1ccn(C(F)F)n1)CCC2 (stereo not shown) [Compound 621, 1-(Difluoromethyl)-N′-((3-methyl-2-(trifluoromethyl)-6,7-dihydro-5H-cyclopenta[b]pyridin-4-yl)carbamoyl)-1H-pyrazole-3-sulfonimidamide] | 1000 to 5000 |

same assay, conditions: Homo sapiens, THP-1, Table B2; 2% fetal bovine serum; numeric bounds; read-out: hTHP-1 IC50

| Structure (SMILES) | IC50 [nM] |
| --- | --- |
| CC(C)(O)c1cc(F)c([S@@](N)(=O)=NC(=O)Nc2cc(CC(F)(F)F)nc3c2CCC3)s1 [Compound 602a] | > 30000 |

same assay, conditions: Table B2; 2% fetal bovine serum; class symbols; read-out: hTHP-1 IC50

| Structure (SMILES) | IC50 [nM] |
| --- | --- |
| Cc1c(C(F)(F)F)nc2c(c1NC(=O)N=S(N)(=O)c1cnc(C(C)(O)CO)s1)CCC2 (stereo not shown) [Compound 605, 2-(1,2-Dihydroxypropan-2-yl)-N′-((3-methyl-2-(trifluoromethyl)-6,7-dihydro-5H-cyclopenta[b]pyridin-4-yl)cabamoyl)thiazole-5-sulfonimidamide] | 200 to 1000 |
| Cc1c(C(F)(F)F)nc2c(c1NC(=O)N=S(N)(=O)c1cnc(C(C)(C)O)s1)CCC2C (stereo not shown) [Compound 608, N′-((3,7-dimethyl-2-(trifluoromethyl)-6,7-dihydro-5H-cyclopenta[b]pyridin-4-yl)carbamoyl)-2-(2-hydroxypropan-2-yl)thiazole-5-sulfonimidamide] | 1000 to 5000 |
